In assay [1] the target is T1, Beta-galactosidase (Bos taurus) (UniProt Q58D55).
T1 sequence (whole entry): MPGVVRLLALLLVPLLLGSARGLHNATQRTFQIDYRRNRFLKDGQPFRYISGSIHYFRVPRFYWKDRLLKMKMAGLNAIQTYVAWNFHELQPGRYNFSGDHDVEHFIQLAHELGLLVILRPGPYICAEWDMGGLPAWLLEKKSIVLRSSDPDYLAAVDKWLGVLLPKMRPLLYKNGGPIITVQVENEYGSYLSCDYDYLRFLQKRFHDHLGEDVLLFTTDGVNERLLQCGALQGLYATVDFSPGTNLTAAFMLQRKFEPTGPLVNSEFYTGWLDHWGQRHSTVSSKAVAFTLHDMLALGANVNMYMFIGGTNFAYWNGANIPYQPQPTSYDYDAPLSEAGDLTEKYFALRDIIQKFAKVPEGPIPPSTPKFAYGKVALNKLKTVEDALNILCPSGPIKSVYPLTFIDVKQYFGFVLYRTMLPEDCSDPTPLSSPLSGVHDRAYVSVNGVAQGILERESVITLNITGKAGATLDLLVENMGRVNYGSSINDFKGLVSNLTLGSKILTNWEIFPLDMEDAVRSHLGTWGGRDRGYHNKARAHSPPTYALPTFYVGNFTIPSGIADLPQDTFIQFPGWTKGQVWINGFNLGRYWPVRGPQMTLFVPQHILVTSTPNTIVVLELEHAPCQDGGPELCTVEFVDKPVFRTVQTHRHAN
Briefly: Inhibition of the enzyme beta-galactosidase from bovine liver was determined at 1 mM concentration of the compound; No inhibition.

The target in assay [2] is T2, Tissue alpha-L-fucosidase (Homo sapiens) (UniProt P04066).
T2 sequence (whole entry): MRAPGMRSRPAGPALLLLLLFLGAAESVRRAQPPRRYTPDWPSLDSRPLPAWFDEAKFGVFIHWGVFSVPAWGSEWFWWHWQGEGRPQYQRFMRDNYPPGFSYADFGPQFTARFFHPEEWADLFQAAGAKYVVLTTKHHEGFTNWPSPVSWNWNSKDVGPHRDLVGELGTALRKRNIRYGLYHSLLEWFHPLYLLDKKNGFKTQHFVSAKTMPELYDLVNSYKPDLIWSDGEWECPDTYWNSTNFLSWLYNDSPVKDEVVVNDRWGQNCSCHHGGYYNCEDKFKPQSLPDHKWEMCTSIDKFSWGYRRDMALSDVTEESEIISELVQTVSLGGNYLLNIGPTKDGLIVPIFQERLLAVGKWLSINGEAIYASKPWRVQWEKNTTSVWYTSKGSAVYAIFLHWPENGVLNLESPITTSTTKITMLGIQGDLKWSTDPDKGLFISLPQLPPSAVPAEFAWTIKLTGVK
Briefly: Inhibition of the enzyme alpha-L-fucosidase from human placenta was determined at 1 mM concentration of the compound; No inhibition.

The test system of another assay is Prunus dulcis. As to the kind of experiment: Inhibition of the enzyme beta-glucosidase from almonds was determined at 1 mM concentration of the compound; No inhibition.
Assay [3] has as its system Saccharomyces cerevisiae. As to the kind of experiment: Inhibition of the enzyme alpha-glucosidase (maltase) from yeast was determined at 1 mM concentration of the compound; No inhibition.
The test system of a further assay is Aspergillus niger. As to the kind of experiment: Inhibition of the enzyme beta-D-xylosidase from Aspergillus niger was determined at 1 mM concentration of the compound; No inhibition.
Assay [4] in a line: Inhibition of the enzyme beta-galactosidase from jack beans was determined at 1 mM concentration of the compound; No inhibition.
Assay [5] concerns Caldicellulosiruptor saccharolyticus. Briefly: Inhibition of the enzyme beta-glucosidase from Caldocellum saccharolyticum was determined at 1 mM concentration of the compound; No inhibition.
Assay [6] is described as follows: Inhibition of the enzyme Beta-mannosidase from Helix pomatia was determined at 1 mM concentration of the compound; No inhibition.
Assay [7] is described as follows: Inhibition of the enzyme alpha-mannosidase from almonds was determined at 1 mM concentration of the compound; Moderate inhibition.
The nature of assay [8]: Inhibition of the enzyme Alpha-galactosidase from Escherichia coli was determined at 1 mM concentration of the compound; No inhibition.
Assay [9] is described as follows: Inhibition of the enzyme Alpha-galactosidase from Aspergillus niger was determined at 1 mM concentration of the compound; No inhibition.
The subject of assay [10] is Saccharomyces cerevisiae. As to the kind of experiment: Inhibition of the enzyme alpha-glucosidase (isomaltase) from baker yeast was determined at 1 mM concentration of the compound; No inhibition.
A further assay has as its system Oryza sativa. As to the kind of experiment: Inhibition of the enzyme alpha-glucosidase (maltase) from rice was determined at 1 mM concentration of the compound; No inhibition.
The nature of assay [11]: Inhibition of the enzyme amyloglucosidase from Rhizopus mold was determined at 1 mM concentration of the compound; No inhibition.
Assay [12] deals with T3, Beta-galactosidase (Aspergillus niger) (UniProt P29853).
T3 sequence (whole entry): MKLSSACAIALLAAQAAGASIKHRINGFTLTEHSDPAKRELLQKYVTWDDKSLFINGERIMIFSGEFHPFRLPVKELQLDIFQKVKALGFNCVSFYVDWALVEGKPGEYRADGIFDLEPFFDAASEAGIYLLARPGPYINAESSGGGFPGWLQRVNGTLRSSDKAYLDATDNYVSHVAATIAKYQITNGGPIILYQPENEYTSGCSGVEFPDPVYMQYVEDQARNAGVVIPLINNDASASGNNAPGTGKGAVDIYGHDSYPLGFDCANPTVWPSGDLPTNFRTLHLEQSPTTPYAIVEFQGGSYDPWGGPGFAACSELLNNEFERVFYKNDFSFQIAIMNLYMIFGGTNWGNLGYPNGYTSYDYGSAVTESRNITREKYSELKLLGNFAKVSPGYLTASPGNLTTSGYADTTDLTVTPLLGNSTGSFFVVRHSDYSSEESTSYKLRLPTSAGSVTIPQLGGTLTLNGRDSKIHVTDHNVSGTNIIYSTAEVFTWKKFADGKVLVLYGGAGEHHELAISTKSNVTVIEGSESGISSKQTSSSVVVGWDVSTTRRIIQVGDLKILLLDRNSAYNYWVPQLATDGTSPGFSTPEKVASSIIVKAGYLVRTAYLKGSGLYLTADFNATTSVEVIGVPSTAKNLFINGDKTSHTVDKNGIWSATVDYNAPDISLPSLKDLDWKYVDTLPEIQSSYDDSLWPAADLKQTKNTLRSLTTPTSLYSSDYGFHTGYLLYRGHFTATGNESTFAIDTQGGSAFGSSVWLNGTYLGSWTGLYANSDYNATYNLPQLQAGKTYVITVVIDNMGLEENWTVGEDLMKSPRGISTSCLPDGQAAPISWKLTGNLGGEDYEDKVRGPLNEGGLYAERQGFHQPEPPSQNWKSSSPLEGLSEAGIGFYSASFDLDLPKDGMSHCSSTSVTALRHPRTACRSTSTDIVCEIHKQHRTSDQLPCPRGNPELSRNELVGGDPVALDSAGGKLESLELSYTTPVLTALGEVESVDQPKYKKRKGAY
As to the kind of experiment: Inhibition of the enzyme beta-galactosidase from Aspergillus niger was determined at 1 mM concentration of the compound; No inhibition.

The target in assay [13] is Glucoamylase (Aspergillus niger) (UniProt P69328). Briefly: Inhibition of the enzyme amyloglucosidase from Aspergillus niger was determined at 1 mM concentration of the compound; No inhibition.
A short description of assay [14]: Inhibition of the enzyme Alpha-galactosidase from coffee beans was determined at 1 mM concentration of the compound; No inhibition. The note with it: Coffea arabica.
Assay [15] has as its target Beta-galactosidase (Escherichia coli) (UniProt Q8VNN2). As to the kind of experiment: Inhibition of the enzyme beta-galactosidase from Escherichia coli was determined at 1 mM concentration of the compound; No inhibition.
The species named for assay [16] is Bos taurus. As to the kind of experiment: Inhibition of the enzyme beta-N-acetylglucosaminidase from bovine epididymis A was determined at 1 mM concentration of the compound; No inhibition.
Assay [17] can be described thus: Inhibition of the enzyme beta-galactosidase from Aspergillus oryzae was determined at 1 mM concentration of the compound; No inhibition.
The species entered for assay [18] is Bos taurus. As to the kind of experiment: Inhibition of the enzyme beta-N-acetylglucosaminidase from bovine epididymis B was determined at 1 mM concentration of the compound; No inhibition.
In a further assay the test system is jack. Briefly: Inhibition of the enzyme beta-N-acetylglucosaminidase from jack beans was determined at 1 mM concentration of the compound; No inhibition.
The target in assay [19] is T4, Alpha-N-acetylgalactosaminidase (Homo sapiens) (UniProt P17050).
T4 sequence (whole entry): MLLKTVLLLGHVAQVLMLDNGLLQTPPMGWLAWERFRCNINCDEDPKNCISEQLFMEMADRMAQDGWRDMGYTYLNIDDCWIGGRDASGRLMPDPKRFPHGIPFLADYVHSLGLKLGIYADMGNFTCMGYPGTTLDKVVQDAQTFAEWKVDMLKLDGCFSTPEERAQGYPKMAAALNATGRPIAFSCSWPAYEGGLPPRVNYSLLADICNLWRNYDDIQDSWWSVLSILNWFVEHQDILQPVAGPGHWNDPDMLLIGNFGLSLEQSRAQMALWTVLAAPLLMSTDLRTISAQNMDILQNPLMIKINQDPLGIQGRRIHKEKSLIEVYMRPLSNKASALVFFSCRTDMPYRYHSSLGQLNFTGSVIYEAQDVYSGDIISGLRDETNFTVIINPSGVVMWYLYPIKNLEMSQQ
Briefly: Inhibition of the enzyme alpha-N-acetylgalactosaminidase from chicken liver was determined at 1 mM concentration of the compound; No inhibition. The note with it: Gallus gallus, target entry is the homologue from another species.

For assay [20], the target named is T2, Tissue alpha-L-fucosidase (Homo sapiens). Briefly: Inhibition of the enzyme alpha-L-fucosidase from bovine epididymis was determined at 1 mM concentration of the compound; No inhibition. As to conditions: Bos taurus, target entry is the homologue from another species.
Assay [21] can be described thus: Inhibition of the enzyme alpha-mannosidase from almonds was determined at 1 mM concentration of the compound; No inhibition.

Calls of active or inactive are those of the source. No cut-off for these calls is given here.

Chain of Beta-galactosidase (Escherichia coli) (Q8VNN2 whole entry, looked up): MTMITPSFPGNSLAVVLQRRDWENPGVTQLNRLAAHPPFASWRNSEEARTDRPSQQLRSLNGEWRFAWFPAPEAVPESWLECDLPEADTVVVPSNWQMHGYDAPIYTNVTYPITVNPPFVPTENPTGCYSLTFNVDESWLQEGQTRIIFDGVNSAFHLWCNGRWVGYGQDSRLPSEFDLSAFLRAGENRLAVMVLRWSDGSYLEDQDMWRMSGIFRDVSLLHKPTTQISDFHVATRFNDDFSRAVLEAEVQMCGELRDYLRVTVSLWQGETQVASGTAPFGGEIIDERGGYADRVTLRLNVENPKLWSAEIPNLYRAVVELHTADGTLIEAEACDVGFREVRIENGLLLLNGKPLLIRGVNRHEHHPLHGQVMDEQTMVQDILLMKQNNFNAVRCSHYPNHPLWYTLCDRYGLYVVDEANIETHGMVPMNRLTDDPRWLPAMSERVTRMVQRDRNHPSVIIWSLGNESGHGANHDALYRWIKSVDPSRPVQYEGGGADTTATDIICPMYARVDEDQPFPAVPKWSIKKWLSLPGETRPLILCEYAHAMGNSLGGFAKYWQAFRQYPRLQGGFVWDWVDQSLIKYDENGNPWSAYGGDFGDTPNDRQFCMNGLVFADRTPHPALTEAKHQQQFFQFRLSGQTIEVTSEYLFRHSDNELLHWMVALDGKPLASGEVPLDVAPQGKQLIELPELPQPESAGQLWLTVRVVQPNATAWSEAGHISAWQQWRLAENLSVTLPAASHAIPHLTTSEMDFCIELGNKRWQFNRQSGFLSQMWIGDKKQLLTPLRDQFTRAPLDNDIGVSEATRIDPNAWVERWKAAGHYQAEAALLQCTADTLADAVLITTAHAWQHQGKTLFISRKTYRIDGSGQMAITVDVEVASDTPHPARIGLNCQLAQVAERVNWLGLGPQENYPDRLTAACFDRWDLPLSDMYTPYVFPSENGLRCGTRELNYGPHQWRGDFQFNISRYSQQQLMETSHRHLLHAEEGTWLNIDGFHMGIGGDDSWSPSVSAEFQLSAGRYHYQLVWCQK
Chain of Glucoamylase (Aspergillus niger) (P69328 whole entry): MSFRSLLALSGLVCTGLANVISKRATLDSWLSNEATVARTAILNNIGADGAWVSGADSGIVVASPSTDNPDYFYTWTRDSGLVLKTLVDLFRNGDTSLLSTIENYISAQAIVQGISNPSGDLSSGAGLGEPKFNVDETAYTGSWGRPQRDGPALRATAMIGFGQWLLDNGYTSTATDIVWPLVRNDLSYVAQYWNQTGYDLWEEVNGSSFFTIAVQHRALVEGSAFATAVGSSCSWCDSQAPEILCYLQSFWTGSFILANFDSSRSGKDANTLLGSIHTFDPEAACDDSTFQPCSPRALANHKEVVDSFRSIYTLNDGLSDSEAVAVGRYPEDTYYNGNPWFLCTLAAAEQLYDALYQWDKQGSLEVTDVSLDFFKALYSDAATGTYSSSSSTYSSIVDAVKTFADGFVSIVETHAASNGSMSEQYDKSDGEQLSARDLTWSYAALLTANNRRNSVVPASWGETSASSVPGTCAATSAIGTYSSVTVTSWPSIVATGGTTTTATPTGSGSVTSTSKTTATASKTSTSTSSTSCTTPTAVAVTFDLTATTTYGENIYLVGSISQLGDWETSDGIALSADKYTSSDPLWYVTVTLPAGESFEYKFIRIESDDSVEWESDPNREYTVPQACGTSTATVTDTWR

A word on the inhibition: it is the relative decrease from the control value, in per cent. For `OCC1O[C@H](O)[C@H](O)[C@@H]([C@H](O)C2NCC(O)C2O)C1O` (stereo partly drawn), the inhibition result (in assay [1]; in assay [2]; in the assay on Prunus dulcis; in the assay with Saccharomyces cerevisiae [3]; with Aspergillus niger; in assay [4]) was “inactive” in each case. Further, the inhibition entry (in [5]; in assay [6]; in assay [8]; in [9]; in the assay with Saccharomyces cerevisiae [10]; in the assay with Oryza sativa) was “inactive” each time. The inhibition entry (in [11]; in [12]; in assay [13]; in assay [14]; in assay [15]; in the assay listed under Bos taurus [16]) was “inactive” each time. Further, the inhibition result (in [17]; in the assay listed under Bos taurus [18]; in the assay on jack; in assay [19]; in assay [20]) was “inactive” each time. In [7], this compound registered an inhibition of 27%.
Turning to `OCC1O[C@H](O)C(O)[C@@H]([C@H](O)C2NCC(O)C2O)C1O` (stereo partly drawn), the inhibition entry (in assay [1]; in assay [2]; in the assay on Prunus dulcis; with Saccharomyces cerevisiae [3]; in the assay with Aspergillus niger; in assay [4]) was “inactive” each time. Besides, the inhibition entry (in [5]; in [6]; in assay [8]; in assay [21]; in assay [9]; with Saccharomyces cerevisiae [10]) was “inactive” each time. Besides, the inhibition entry (with Oryza sativa; in [11]; in assay [12]; in assay [13]; in assay [14]; in [15]) was “inactive” throughout. Also, the inhibition entry (in the assay filed under Bos taurus [16]; in assay [17]; in the assay listed under Bos taurus [18]; in the assay on jack; in assay [19]; in [20]) was “inactive” each time.

For the origin of these results see ChEMBL document CHEMBL1129894, “Dihydroxypyrrolidines C-linked to galactose. Total synthesis of a specific inhibitor of -mannosidases” (Bioorg Med Chem Lett, 1997).
